Results reported in patent US8188101B2 (AstraZeneca AB, priority 2008, dated 2012).

Test system: Aβ42 release
Experiment: Aβ release in cells stably expressing APPswe, Meso Scale Discovery electrochemiluminescence assay
Assay type: cell-based, Human
Conditions: Homo sapiens, SH-SY5Y, HEK or SH-SY5Y cells stably expressing APPswe, 4-6 hours incubation with test compound
Method in brief: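 HEK or SH-SY5Y cells stably expressing APPswe, plated 15-24 h, then exposed to compound (diluted ×200 into fresh medium) for 4-6 h at 37 °C. Secreted Aβ42 in medium quantified by Meso Scale Discovery electrochemiluminescence with specific antibodies; cytotoxicity checked by cellular ATP content.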

IC50 | SMILES
158 nM | CN1CCc2nc(Nc3ccc(-c4cnco4)cc3)nc(NC[C@@H]3CCCO3)c2C1 [Example 83, (S)-6-Methyl-N2-(4-(oxazol-5-yl)phenyl)-N4-((tetrahydrofuran-2-yl)methyl)-5,6,7,8-tetrahydropyrido[4,3-d]pyrimidine-2,4-diamine]
1260 nM | CC(=O)c1cccc(Nc2nc(Nc3ccc(-c4cnco4)cc3)nc3c2CN(C(C)=O)CC3)c1 [Example 33, 1-(3-(6-Acetyl-2-(4-(oxazol-5-yl)phenylamino)-5,6,7,8-tetrahydropyrido[4,3-d]pyrimidin-4-ylamino)phenyl)ethanone]
1000 nM | CC(=O)N1CCc2nc(Nc3ccc(-c4cnco4)cc3)nc(N3c4ccccc4C[C@H]3CO)c2C1 [Example 30]
631 nM | CC(=O)N1CCc2nc(Nc3ccc(-c4cnco4)cc3)nc(Nc3cccc(CO)c3)c2C1 [Example 29, 1-(4-(3-(Hydroxymethyl)phenylamino)-2-(4-(oxazol-5-yl)phenylamino)-7,8-dihydropyrido[4,3-d]pyrimidin-6(5H)-yl)ethanone]
